# Test results: US5955501A, “Protein kinase C modulators O” (priority 1995, dated 1999)
# Structures can show the parent of a compound that is named as a salt.
# Tested on: HIV
# Test: Anti-HIV activity in HIV-infected human peripheral blood lymphocytes (supernatant viral RNA and p24 core protein)
# Format: cell-based
# Conditions: Human immunodeficiency virus 1, Lymphocyte, 96 h; supernatant total viral RNA; at four days; read-out: ED50, concentration of drug giving 50% inhibition of production of viral RNA
# Experimental: Human peripheral blood lymphocytes were isolated from the buffy coat fractions of blood donations. The lymphocytes were then stimulated with 5 μg/ml of phytohemagglutinin for 48 hours. Prior to infection with HIV, the lymphocytes were washed and resuspended in mitogen-free medium. On day 0 the cells were infected with HIV and were cultured for four days in the presence or absence of graded concentrations of 20-deoxy-20-chlorophorbol 12,13-bis[(2',4'-difluorophenyl)acetate]. On days 3 and 4 the supernatant levels of total viral RNA and viral core protein p24 were determined at each drug concentration and dose-response curves were used to determine the concentration of drug giving 50% inhibition of production of viral RNA and of p24 core protein. At four days these ED50 values were less than 100 pM for both RNA and p24.
# (§1) In a manner similar to Example 111, the anti-HIV ED50 values for RNA [drug concentration is in brackets] for the following diterpenoid compounds were determined from dose-response curves or by estimation from one or more experimental drug concentrations.
# as §1, with “indolactam-type” for “diterpenoid”, “concentrations, data giving percent inhibition of viral RNA production at selected concentrations appear in parentheses:” for “concentrations.”
# as §1, with “diacylglycero-type” for “diterpenoid”, “concentrations; data giving percent inhibition of viral RNA production at selected concentrations appear in parentheses: […]” for “concentrations.”
row,Compound,EC50 [µM]
1,"CC1=C[C@H]2[C@@]3(O)[C@H](C)[C@@H](OC(=O)Cc4ccc(F)cc4F)[C@]4(OC(=O)Cc5ccc(F)cc5F)[C@H]([C@@H]3C=C(CCl)C[C@]2(O)C1=O)C4(C)C [20-deoxy-20-chlorophorbol 12,13-bis[(2',4'-difluorophenyl)acetate]]",< 0.0001

# Same assay, conditions: Human immunodeficiency virus 1, Lymphocyte, 96 h; supernatant viral core protein p24; at four days; read-out: ED50, concentration of drug giving 50% inhibition of production of p24 core protein
row,Compound,EC50 [µM]
1,"CC1=C[C@H]2[C@@]3(O)[C@H](C)[C@@H](OC(=O)Cc4ccc(F)cc4F)[C@]4(OC(=O)Cc5ccc(F)cc5F)[C@H]([C@@H]3C=C(CCl)C[C@]2(O)C1=O)C4(C)C [20-deoxy-20-chlorophorbol 12,13-bis[(2',4'-difluorophenyl)acetate]]",< 0.0001

# Same assay, conditions: Human immunodeficiency virus 1, Lymphocyte, read-out: percent inhibition of viral RNA production
row,Compound,inhibition at 10 µM [%]
1,"CNC(=O)OC[C@@H]1Cc2cn(CC[P+](c3ccccc3)(c3ccccc3)c3ccccc3)c3cccc(c23)N(C)[C@@H](C(C)C)C(=O)N1 (relative stereo) [rac-14-O-(N-methyl)carbamoyl-1-N-(2'-triphenylphosphonium)ethylindolactam V, methanesulfonate salt]",82
2,CNC(=O)OC[C@@H]1Cc2c[nH]c3cccc(c23)N(C)[C@@H](C(C)C)C(=O)N1 (relative stereo) [rac-14-O-(N-methyl)carbamoylindolactam V],52

# Same assay, conditions: Human immunodeficiency virus 1, Lymphocyte; at 10 μM; read-out: percent inhibition of viral RNA production
row,Compound,inhibition at 10 µM [%]
1,CCOC(=O)[C@@H]1Cc2cn(CO)c3cccc(c23)N(C)[C@@H](C(C)C)C(=O)N1 [1-N-hydroxymethyl-9-deshydroxymethyl-9-ethoxycarbonylindolactam V],31

# Same assay, conditions: Human immunodeficiency virus 1, Lymphocyte; from dose-response curves or by estimation from one or more experimental drug concentrations; read-out: anti-HIV ED50 for RNA
row,Compound,EC50 [µM]
1,"CC1=C[C@H]2[C@@]3(O)[C@H](C)[C@@H](OC(=O)Cc4ccc(F)cc4F)[C@]4(OC(=O)Cc5ccc(F)cc5F)[C@H]([C@@H]3C=C(COC(=O)Oc3ccc(O)cc3)C[C@]2(O)C1=O)C4(C)C [20-O-(4'-hydroxyphenoxy)carbonylphorbol 12,13-bis[(2',4'-difluorophenyl)acetate]]",< 0.01
2,"COC(=O)C1=C[C@H]2[C@@H]3C(C)(C)[C@]3(OC(=O)Cc3ccc(F)cc3F)[C@H](OC(=O)Cc3ccc(F)cc3F)[C@@H](C)[C@]2(O)[C@@H]2C=C(C)C(=O)[C@@]2(O)C1 [6-deshydroxymethyl-6-methoxycarbonylphorbol 12,13-bis[(2',4'-difluorophenyl)acetate]]",1.6
3,CCCCCCCCCCCCCC(=O)O[C@@H]1[C@@H](C)[C@@]2(O)[C@@H](C=C(CS(=O)(=O)CCO)C[C@]3(O)C(=O)C(C)=C[C@@H]23)[C@@H]2C(C)(C)[C@]12OC(C)=O [20-deoxy-20-(2'-hydroxyethylsulfonyl)phorbol 12-myristate 13-acetate],0.5
4,"CC1=C[C@H]2[C@@]3(O)[C@H](C)[C@@H](OC(=O)Cc4ccc(F)cc4F)[C@]4(OC(=O)Cc5ccc(F)cc5F)[C@H]([C@@H]3C=C(C[S+]([O-])CCO)C[C@]2(O)C1=O)C4(C)C (stereo partly shown) [20-deoxy-20-(2'-hydroxyethylsulfinyl)phorbol 12,13-bis[(2',4'-difluorophenyl)acetate]]",1.6
5,"CC1=C[C@H]2[C@@]3(O)[C@H](C)[C@@H](OC(=O)Cc4ccc(F)cc4F)[C@]4(OC(=O)Cc5ccc(F)cc5F)[C@H]([C@@H]3C=C(CS(=O)(=O)CCO)C[C@]2(O)C1=O)C4(C)C [20-deoxy-20-(2'-hydroxyethylsulfonyl)phorbol 12,13-bis[(2',4'-difluorophenyl)acetate]]",5
6,"CCCSCC1=C[C@H]2[C@@H]3C(C)(C)[C@]3(OC(=O)Cc3ccc(F)cc3F)[C@H](OC(=O)Cc3ccc(F)cc3F)[C@@H](C)[C@]2(O)[C@@H]2C=C(C)C(=O)[C@@]2(O)C1 [20-deoxy-20-propylthiophorbol 12,13-bis[(2',4'-difluorophenyl)acetate]]",0.01
7,"CC1=C[C@H]2[C@@]3(O)[C@H](C)[C@@H](OC(=O)Cc4c(F)c(F)c(F)c(F)c4F)[C@]4(OC(=O)Cc5c(F)c(F)c(F)c(F)c5F)[C@H]([C@@H]3C=C(CCl)C[C@]2(O)C1=O)C4(C)C [20-deoxy-20-chlorophorbol 12,13-bis[(pentafluorophenyl)acetate]]",< 0.001
8,"CC1=C[C@H]2[C@@]3(O)[C@H](C)[C@@H](OC(=O)Cc4ccc(F)cc4F)[C@]4(OC(=O)Cc5ccc(F)cc5F)[C@H]([C@@H]3C=C(CSCCO)C[C@]2(O)C1=O)C4(C)C [20-deoxy-20-(2'-hydroxyethylthio)phorbol 12,13-bis[(2',4'-difluorophenyl)acetate]]",1
9,CCCCCCCCCCCCCC(=O)O[C@@H]1[C@@H](C)[C@@]2(O)[C@@H](C=C(COC(=O)Nc3ccc(F)c([N+](=O)[O-])c3)C[C@]3(O)C(=O)C(C)=C[C@@H]23)[C@@H]2C(C)(C)[C@]12OC(C)=O [phorbol 12-myristate 13-acetate 20-(4'-fluoro-3'-nitrophenyl)carbamate],4
10,"CC1=C[C@H]2[C@@]3(O)[C@H](C)[C@@H](OC(=O)Cc4ccc(F)cc4F)[C@]4(OC(=O)Cc5ccc(F)cc5F)[C@H]([C@@H]3C=C(CSCCS)C[C@]2(O)C1=O)C4(C)C [20-deoxy-20-(2'-mercaptoethylthio)phorbol 12,13-bis[(2',4'-difluorophenyl)acetate]]",0.05
11,CCCCCCCCCCCCCC(=O)O[C@@H]1[C@@H](C)[C@@]2(O)[C@@H](C=C(C[S+]([O-])CCO)C[C@]3(O)C(=O)C(C)=C[C@@H]23)[C@@H]2C(C)(C)[C@]12OC(C)=O (stereo partly shown) [20-deoxy-20-(2'-hydroxyethylsulfinyl)phorbol 12-myristate 13-acetate],1.1
12,"CC1=C[C@H]2[C@@]3(O)[C@H](C)[C@@H](OC(=O)Cc4ccc(F)cc4F)[C@]4(OC(=O)Cc5ccc(F)cc5F)[C@H]([C@@H]3C=C(C=NO)C[C@]2(O)C1=NO)C4(C)C [20-deoxy-3-deoxo-3,20-bis(hydroximino)phorbol 12,13-bis[(2',4'-difluorophenyl)acetate]]",0.045
13,"O=C1CCCCCCCCCCCCCCCCCCC(=O)OC(CSCCO)CO1 (stereo not shown) [3-[(2'-hydroxyethylthio)methyl]-1,6-dioxo-2,5-dioxacyclotetracosane]",0.01
14,"CC1=C[C@H]2[C@@]3(O)[C@H](C)[C@@H](OC(=O)Cc4ccc(F)cc4F)[C@]4(OC(=O)Cc5ccc(F)cc5F)[C@H]([C@@H]3C=C(C#N)C[C@]2(O)C1=O)C4(C)C [6-deshydroxymethyl-6-cyanophorbol 12,13-bis[(2',4'-difluorophenyl)acetate]]",< 0.1
15,CC(C)[C@H]1C(=O)N[C@H](CSCCO)Cc2c[nH]c3cccc(c23)N1C [14-deoxy-14-(2'-hydroxyethylthio)indolactam V],1
16,"CC1=C[C@H]2[C@@]3(O)[C@H](C)[C@@H](OC(=O)Cc4ccc(F)cc4F)[C@]4(OC(=O)Cc5ccc(F)cc5F)[C@H]([C@@H]3C=C(CNc3cccc(CO)c3)C[C@]2(O)C1=O)C4(C)C [20-deoxy-20-[(3'-hydroxymethylphenyl)amino]phorbol 12,13-bis[(2',4'-difluorophenyl)acetate]]",0.18
17,"CC1=C[C@H]2[C@@]3(O)[C@H](C)[C@@H](OC(=O)Cc4ccc(F)cc4F)[C@]4(OC(=O)Cc5ccc(F)cc5F)[C@H]([C@@H]3C=C(CSCCC(=O)O)C[C@]2(O)C1=O)C4(C)C [20-deoxy-20-(2'-carboxyethylthio)phorbol 12,13-bis(2',4'-difluorophenylacetate)]",4.5
18,"CCCCCCCCc1ccc2c3c(c[nH]c13)C[C@@H](CSCCO)NC(=O)[C@H](C(C)C)N2C [14-deoxy-14-(2'-hydroxyethylthio)-7-octyl-(9S,12S)-indolactam V]",0.1
19,"CC1=C[C@H]2[C@@]3(O)[C@H](C)[C@@H](OC(=O)Cc4ccc(F)cc4F)[C@]4(OC(=O)Cc5ccc(F)cc5F)[C@H]([C@@H]3C=C(C=NO)C[C@]2(O)C1=O)C4(C)C [20-deoxy-20-hydroximinophorbol 12,13-bis[(2',4'-difluorophenyl)acetate]]",5.5
20,"CC1=C[C@H]2[C@@]3(O)[C@H](C)[C@@H](OC(=O)Cc4ccc(F)cc4F)[C@]4(OC(=O)Cc5ccc(F)cc5F)[C@H]([C@@H]3C=C(CSCC(O)CO)C[C@]2(O)C1=O)C4(C)C (stereo partly shown) [20-deoxy-20-(2',3'-dihydroxypropylthio)phorbol 12,13-bis[(2',4'-difluorophenyl)acetate]]",3
21,"CC1=C[C@H]2[C@@]3(O)[C@H](C)[C@@H](OC(=O)Cc4ccc(F)cc4F)[C@]4(OC(=O)Cc5ccc(F)cc5F)[C@H]([C@@H]3C=C(CN=[N+]=[N-])C[C@]2(O)C1=O)C4(C)C [20-deoxy-20-azidophorbol 12,13-bis[(2',4'-difluorophenyl)acetate]]",0.065
22,"CC1=C[C@H]2[C@@]3(O)[C@H](C)[C@@H](OC(=O)Cc4ccc(F)cc4F)[C@]4(OC(=O)Cc5ccc(F)cc5F)[C@H]([C@@H]3C=C(CN)C[C@]2(O)C1=O)C4(C)C [20-deoxy-20-aminophorbol 12,13-bis[(2',4'-difluorophenyl)acetate]]",0.1

# Same assay, conditions: at 10 μM
row,Compound,percent inhibition of viral RNA production [%]
1,9-deshydroxymethyl-9-ethoxycarbonylindolactam V,47
2,"9-Deshydroxymethyl-9-[N-(2',3'-dihydroxy)propyl]carboxamidoindolactam V",22
3,"CC(C)C1C(=O)NC(C(=O)OCC(O)CO)Cc2c[nH]c3cccc(c23)N1C (stereo not shown) [9-deshydroxymethyl-9-(2',3'-dihydroxy)propyloxycarbonylindolactam V]",20
4,9-deshydroxymethyl-9-[N-(2'-glucosyl)]carboxamidoindolactam V,35
